US20020064511A1, “Water-soluble polymers for the reduction of dietary phosphate or oxalate absorption” (priority 1996, published 2002)

Test: Complexation of phosphate in NaH2PO4 solution, Centricon 30 filtrate phosphorus by ICP
Assay type: binding
Protocol: In each of four tubes, 0.54 mL of this solution (0.19 mmol of monomer units) were mixed with 10 mL of 0.0207 M NaH2PO4 and appropriate amounts of HCl and NaOH to make solutions of pH 3, pH 4.5, pH 6, and pH 7.5. Tubes with the same pH were also prepared with 10 mL of 0.0207 M NaH2PO4and 0.50 mL of 1.5 M CaCO, (0.749 mmol). Control tubes were also prepared with the sodium phosphate solution and the adjustment of pH. All tubes were diluted to 12 mL with water. The tubes were agitated for one hour. The solutions were then placed in separate Centricon™ 30 molecular weight cutoff tubes and centrifuged for 30 minutes. The filtrate collected was analyzed for phosphorus by inductively coupled plasma spectroscopy.
In each of four tubes, 0.67 mL of this solution (0.18 mmol of monomer units) were mixed with 10 mL of 0.0207 M NaH2PO4 and appropriate amounts of HCl and NaOH to make solutions of pH 3, pH 4.5, pH 6, and pH 7.5. Tubes with the same pH were also prepared with 10 mL of 0.0207 M NaH2PO4 and 0.50 mL of 1.5 M CaCO3 (0.749 mmol). Control tubes were also prepared with the sodium phosphate solution and the adjustment of pH. All tubes were diluted to 12 mL with water. The tubes were agitated for one hour. The solutions were then placed in separate Centricon™ 30 molecular weight cutoff tubes and centrifuged for 30 minutes. The filtrate collected was analyzed for phosphorus by inductively coupled plasma spectroscopy.

SMILES: O=C([O-])[O-].[Ca+2] [calcium carbonate]
- phosphorus removed (pH 3, 10 mL 0.0207 M NaH2PO4, one hour): 16%
- phosphorus removed (pH 4.5, 10 mL 0.0207 M NaH2PO4, one hour): 13%
- phosphorus removed (pH 6, 10 mL 0.0207 M NaH2PO4, one hour): 9%
- phosphorus removed (pH 7.5, 10 mL 0.0207 M NaH2PO4, one hour): 7%
